Legend:
Ovariectomized rats = experiment: Vaginal keratinization test on ovariectomized rats (Example C.2); assay type: in vivo; details: estradiol undecylate induced keratinization, per os once daily on days 1-3, active dose = 50% of rats show complete suppression
Procedure, shortened: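 Ovariectomized rats given s.c. estradiol undecylate (100 μg per 100 g body weight in sesame oil), then oral compound once daily on days 1-3 (vehicle PEG 200). Vaginas assessed histologically one day after last dose; lowest active dose (mg/kg) is the dose giving complete keratinization suppression in 50% of rats.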

[1] = test system: metabolism of retinoic acid in human breast cancer cells; experiment: Inhibition of retinoic acid (RA) metabolism (Example C.1); assay type: cell-based; details: MCF-7 human breast cancer cells, 3H-RA as substrate, concentration needed to reduce the amount of metabolites to 50% of the control
Procedure, shortened: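 MCF-7 cells, pre-stimulated with RA the day before, incubated with ³H-RA substrate and test compound in 1% DMSO. Polar ³H-metabolites separated from unmetabolized RA and counted by scintillation. IC50 is the concentration cutting metabolite formation to 50% of control, with blank run alongside.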

| IC50 [1] | IC50 ([1]; MCF7) | SMILES | LAD (lowest active dose) (Ovariectomized rats) | minimal effective dose (Ovariectomized rats; Rattus norvegicus, po, read-out: LAD (lowest active dose)) |
| --- | --- | --- | --- | --- |
| 0.358 nM |  | COc1ccc(CC(=O)Nc2ccc(C(C(C)C)n3ccnc3)cc2)cc1 (stereo not shown) [Compound 662] | 5.00 mg/kg |  |
| > 100 nM |  | O=C(Nc1ccc(C(c2cccc(C(F)(F)F)c2)n2cncn2)cc1)Nc1cccc(F)c1 (racemic) [Compound 711] | 5.00 mg/kg |  |
| 2.87 nM |  | C/C(=C\c1ccccc1)C(=O)Nc1ccc(C(C(C)C)n2ccnc2)cc1 (racemic) [Compound 455] | 2.50 mg/kg |  |
| 1.55 nM |  | CCC(CC)C(c1ccc(NC(=O)CCc2ccc(OC)c(OC)c2)cc1)n1cncn1 (racemic) [Compound 10] | 2.50 mg/kg |  |
| > 100 nM |  | O=C(Cc1ccc(Cl)cc1)Nc1ccc(C(c2cccc(C(F)(F)F)c2)n2ccnc2)cc1 (stereo not shown) [Compound 361] | 10.00 mg/kg |  |
| > 1000 nM |  | CC(=O)Nc1ccc(C(c2cccc(C(F)(F)F)c2)n2ccnc2)cc1 (stereo not shown) [Compound 524] | 20.00 mg/kg |  |
| 43.1 nM |  | CC(C)C(c1ccc(NC(=O)Cc2ccc(Cl)cc2)cc1)c1cccnc1 (racemic) [Compound 686] | >10.00 mg/kg |  |
| 27.7 nM |  | CCCC(CCC)C(c1ccc(NC(=O)/C(C)=C/c2ccccc2)cc1)n1ccnc1 (stereo not shown) [Compound 486] | 5.00 mg/kg |  |
| 1.79 nM |  | CC(C)C(c1ccc(NC(=O)C2Oc3ccccc3O2)cc1)n1ccnc1 (stereo not shown) [Compound 248] | 2.50 mg/kg |  |
| 3.43 nM |  | CC(=Cc1ccccc1)C(=O)Nc1ccc(C(C(C)Sc2ccccc2)n2ccnc2)cc1 (single isomer, unassigned) [Compound 484] | >5.00 mg/kg |  |
| > 10 nM |  | CCN(C(=O)/C(C)=C/c1ccccc1)c1ccc(C(C(C)C)n2ccnc2)cc1 (racemic) [Compound 422] | >10.00 mg/kg |  |
| 8.66 nM |  | CC(C)C(c1ccc(NC(=O)C(O)c2ccc(Cl)cc2)cc1)n1ccnc1 (stereo not shown) [Compound 669] | 5.00 mg/kg |  |
| 0.154 nM |  | CCC(CC)C(c1ccc(NC(=O)Nc2ccccc2F)cc1)n1cncn1 (racemic) [Compound 715] | >2.50 mg/kg |  |
| > 1000 nM |  | C/C(=C\c1ccccc1)C(=O)Nc1ccc(C(c2ccncc2)C(C)C)cc1 (racemic) [Compound 681] | >20.00 mg/kg |  |
| 31.3 nM |  | C/C(=C\c1ccc(C(F)(F)F)cc1)C(=O)Nc1ccc(C(C(C)C)n2ccnc2)cc1 (stereo not shown) [Compound 580] | 10.00 mg/kg |  |
| 1.44 nM |  | CC(C)C(c1ccc(NC(=O)Nc2cccc(F)c2)cc1)n1ccnc1 (racemic) [Compound 741] | 10.00 mg/kg |  |
| 0.81 nM |  | CCC(C)C(c1ccc(NC(=O)Cc2ccc(O)c(OC)c2)cc1)n1ccnc1 (stereo not shown) [Compound 432] | >2.50 mg/kg |  |
| 0.0247 nM |  | CCC(CC)C(c1ccc(NC(=O)Cc2ccc(OC)c(C)c2)cc1)n1ccnc1 (racemic) [Compound 123] | 2.50 mg/kg |  |
| 0.133 nM |  | CCC(CC)C(c1ccc(NC(=O)Nc2ccc(OC)c(OC)c2)cc1)n1cncn1 (racemic) [Compound 718] | 2.50 mg/kg |  |
| 10.8 nM |  | CC(C=Cc1ccccc1)C(=O)Nc1ccc(C(C(C)C)n2ccnc2)cc1 (mixture of isomers) [Compound 165] | >20.00 mg/kg |  |

| IC50 [1] | IC50 ([1]; MCF7) | SMILES | LAD (lowest active dose) (Ovariectomized rats) | minimal effective dose (Ovariectomized rats; Rattus norvegicus, po, read-out: LAD (lowest active dose)) |
| --- | --- | --- | --- | --- |
| 6.53 nM |  | C/C(=C\c1ccc([N+](=O)[O-])cc1)C(=O)Nc1ccc(C(C(C)C)n2ccnc2)cc1 (racemic) [Compound 610] | >10.00 mg/kg |  |
| 0.0678 nM |  | CCC(CC)C(c1ccc(NC(=O)Cc2cccc(OC)c2OC)cc1)n1ccnc1 (racemic) [Compound 102] | 5.00 mg/kg |  |
| 3.83 nM |  | C/C(=C\c1cccs1)C(=O)Nc1ccc(C(C(C)C)n2ccnc2)cc1 (racemic) [Compound 595] | 10.00 mg/kg |  |
| 86.5 nM |  | CC(C)C(c1ccc(NC(=O)C(F)=Cc2ccccc2)cc1)n1cncn1 (racemic) [Compound 160] | 10.00 mg/kg |  |
| 4.28 nM |  | CC(C)C(c1ccc(NC(=O)Nc2ccncc2)cc1)n1ccnc1 (racemic) [Compound 275] | >10.00 mg/kg |  |
| 1.38 nM |  | CC(C)(C)CC(c1ccc(NC(=O)Cc2ccc(Cl)cc2)cc1)n1cncn1 (racemic) [Compound 623] | >5.00 mg/kg |  |
| 6.47 nM |  | CC(C)C(c1ccc(NC(=O)C2=Cc3ccccc3OC2)cc1)n1ccnc1 (racemic) [Compound 254] | >5.00 mg/kg |  |
| 1.43 nM |  | CCC(CC)C(c1ccc(NC(=O)Cc2ccc3c(c2)OCCO3)cc1)n1ccnc1 (racemic) [Compound 36] | 5.00 mg/kg |  |
| 1.47 nM |  | CC(C)C(c1ccc(NC(=O)Cc2cccc(F)c2)cc1)n1ccnc1 (stereo not shown) [Compound 656] | 10.00 mg/kg |  |
| 5.27 nM |  | CCCN(C)C(C)C(c1ccc(NC(=O)Cc2ccc(OC)c(OC)c2)cc1)n1ccnc1 (single isomer, unassigned) [Compound 413] | 5.00 mg/kg |  |
| 1 nM |  | CCC(CC)C(c1ccc(NC(=O)COc2ccccc2OC)cc1)n1ccnc1 (racemic) [Compound 37] | 5.00 mg/kg |  |
|  | 1.29 nM | CC(C)C(c1ccc(NC(=O)Nc2ccc(F)cc2)cc1)n1ccnc1 (racemic) [Compound 740, (±)-N-(4-fluorophenyl)-N′-[4-[1-(1H-imidazol-1-yl)-2-methylpropyl]phenyl]urea] |  | 20 mg/kg |
| 1.08 nM |  | CC(C)C(c1ccc(NC(=O)c2cccc(F)c2)cc1)n1ccnc1 (stereo not shown) [Compound 221] | 10.00 mg/kg |  |
| 0.257 nM |  | CC(C(c1ccc(NC(=O)CN2CCN(C)CC2)cc1)n1ccnc1)N(C)C (single isomer, unassigned) [Compound 352] | >5.00 mg/kg |  |
| 0.379 nM |  | CCC(CC)C(c1ccc(NC(=O)Cc2ccc(C)cc2)cc1)n1cncn1 (racemic) [Compound 65] | 5.00 mg/kg |  |
| 0.583 nM |  | CC(C(c1ccc(NC(=O)Cc2ccc(Cl)cc2)cc1)n1ccnc1)N(C)C (single isomer, unassigned) [Compound 368] | 2.50 mg/kg |  |
| 5.27 nM |  | O=C(Cc1ccc(Cl)cc1)Nc1ccc(C2(n3ccnc3)CCC2)cc1 [Compound 774] | 10.00 mg/kg |  |
| 4.39 nM |  | CC(=O)Nc1ccc(C2(n3ccnc3)CCCCC2)cc1 [Compound 776] | >20.00 mg/kg |  |
| 3.59 nM |  | CC(CC#N)C(c1ccc(NC(=O)Cc2ccc(Cl)cc2)cc1)n1ccnc1 (mixture of isomers) [Compound 371] | 10.00 mg/kg |  |
| 8.17 nM |  | CCC(CC)C(c1ccc(NC(=O)Cc2cccc(OC)c2OCc2ccccc2)cc1)n1ccnc1 (racemic) [Compound 115] | >2.50 mg/kg |  |

| SMILES | IC50 [1] | IC50 ([1]; MCF7) | LAD (lowest active dose) (Ovariectomized rats) | minimal effective dose (Ovariectomized rats; Rattus norvegicus, po, read-out: LAD (lowest active dose)) |
| --- | --- | --- | --- | --- |
| CCC(CC)C(c1ccc(NC(=O)C(O)c2ccc(Cl)cc2)cc1)n1cncn1 (racemic) [Compound 18, (±)-(A2)-4-chloro-N-[4-[2-ethyl)-1-(1H-1,2,4-triazol-1-yl)butyl]phenyl]-α-hydroxybenzeneacetamide] | 0.872 nM |  | 2.50 mg/kg |  |

— patent publication US7179825B2, “Retinoic acid mimetic anilides” (Janssen Pharmaceutica N.V., priority 1997, dated 2007)
